Test results reported in US9206161B2, “Bridged bicyclic heteroaryl substituted triazoles useful as Axl inhibitors” (Rigel Pharmaceuticals, Inc., priority 2008, dated 2015).
Values belong to the molecule of their own block, whether it stands above or below them.

Target: T1, Axl (Homo sapiens, UniProt P30530)
T1 construct: endogenous in cells; host or cells: HeLa cells
T1 sequence (P30530 26-894): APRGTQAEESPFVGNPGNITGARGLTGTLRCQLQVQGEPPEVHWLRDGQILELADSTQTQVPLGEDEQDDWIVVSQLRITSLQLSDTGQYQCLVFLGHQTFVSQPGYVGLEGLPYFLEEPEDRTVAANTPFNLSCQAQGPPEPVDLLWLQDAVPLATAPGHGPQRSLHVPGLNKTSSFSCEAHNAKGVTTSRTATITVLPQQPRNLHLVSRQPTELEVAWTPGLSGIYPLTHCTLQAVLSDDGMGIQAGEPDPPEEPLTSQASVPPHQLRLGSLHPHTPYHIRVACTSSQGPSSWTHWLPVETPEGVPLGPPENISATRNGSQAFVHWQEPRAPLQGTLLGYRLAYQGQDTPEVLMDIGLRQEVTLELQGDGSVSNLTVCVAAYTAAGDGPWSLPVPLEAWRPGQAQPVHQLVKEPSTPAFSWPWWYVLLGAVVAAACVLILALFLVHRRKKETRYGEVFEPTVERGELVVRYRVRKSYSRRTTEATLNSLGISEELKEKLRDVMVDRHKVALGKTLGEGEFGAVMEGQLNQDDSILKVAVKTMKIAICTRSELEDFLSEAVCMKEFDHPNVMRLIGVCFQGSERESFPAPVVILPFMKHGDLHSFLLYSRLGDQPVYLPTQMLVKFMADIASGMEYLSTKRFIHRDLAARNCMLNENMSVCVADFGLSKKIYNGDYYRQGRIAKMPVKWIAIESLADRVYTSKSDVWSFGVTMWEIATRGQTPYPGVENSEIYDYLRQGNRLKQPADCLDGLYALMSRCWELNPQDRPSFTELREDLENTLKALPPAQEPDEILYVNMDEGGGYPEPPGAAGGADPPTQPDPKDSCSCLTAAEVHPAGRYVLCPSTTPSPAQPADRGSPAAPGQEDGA
Experiment: Phospho-Akt in-cell Western assay
Type: cell-based
Details: Hela cells, Axl antibody cross-linking stimulation, phospho-Akt readout
Method: Phospho-Akt in-Cell Western Assay
The compounds of the invention were tested in the following assay for their ability to inhibit Axl activity.
• Cell culture plate: 96 well assay plate (Corning 3610), white, clear bottom, tissue-culture treated. • Cells: Hela cells. • Starvation medium: For Axl stimulation: 0.5% FCS (fetal calf serum) in DMEM, plus Axl/Fc (extracellular domain of AXL fused to immunoglobulin Fc region) (R&D, 154-AL) 500 ng/mL. • For EGF (epidermal growth factor) stimulation: 0.5% FCS in DMEM (Dulbecco's modified Eagles medium). • Poly-L-Lysine 0.01% solution (the working solution): 10 μg/ml, dilute In PBS (phosphate buffered saline). • Axl antibody cross-linking: • 1st: Mouse anti-Axl (R&D, MAB154). • 2nd: Biotin-SP-conjugated AffiniPure goat anti-mouse IgG (H+L) (Jackson ImmunoResearch #115-065-003). • Fixing buffer: 4% formaldehyde in PBS. • Wash buffer: 0.1% TritonX-100 in PBS. • Quenching buffer: 3% H2O2, 0.1% Azide in wash buffer, Azide and hydrogen peroxide (H2O2) are added fresh. • Blocking buffer: 5% BSA in TBST (tris buffered saline plus 0.1% Tween 20). • Primary antibody: Rabbit anti-human Phospho-Akt antibody (Cell Signaling 9271): 1×250 diluted in blocking buffer. • Secondary antibody: HRP (horse radish peroxidase)-conjugated Goat anti-Rabbit secondary, stock solution: Jackson ImmunoResearch (Goat anti-Rabbit HRP, #111-035-144) 1:1 diluted in glycerol, store at −20° C. The working solution: 1×2000 dilution of stock in blocking buffer. • Chemiluminescent working solution (Pierce, 37030): SuperSignal ELISA (enzyme linked immunosorbant assay) Pico Chemiluminescent substrate. • Crystal Violet solution: Stock: 2.5% Crystal violet in methanol, filtered and kept at ambient temperature. The working solution: dilute the stock 1:20 with PBS immediately before use. • 10% SDS: working solution: 5% SDS (sodium dodecylsulfate), diluted in PBS Methods: Day 1:
A 96 well TC (tissue culture treated) plate was coated with 10 μg/mL poly-L-Lysine at 37° C. for 30 min, washed twice with PBS, and air-dried for 5 minutes before cells were added. Hela cells were seeded at 10,000 cells/well and the cells were starved in 100 μL starvation medium containing Axl/Fc for 24 hrs.
The cells were pre-treated with test compounds by adding 100 μL of 2× test compound to the starvation medium on the cells. The cells were incubated at 37° C. for 1 hr before stimulation.
The cells were stimulated by Axl-antibody cross-linking as follows: A 5×1st/2nd Axl antibody mixture was made (37.5 μg/mL 1st/100 μg/mL 2nd) in starvation medium and nutated at 4° C. with thorough mixing for 1-2 hours for clustering. The resulting mix was warmed to 37° C. 50 μL of 5× Axl 1st/2nd of antibody cluster was added to the cells and the cells were incubated at 37° C. for 5 min.
After 5 minutes stimulation, the plate was flicked to remove medium and the plate was tapped onto paper towels. Formaldehyde (4.0% in PBS, 100 μL) was added to fix the cells and the cells were incubated at ambient temperature for 20 min without shaking.
The cells were washed with a plate washer buffer to remove the formaldehyde solution. The plate was flicked to removed excess wash buffer and tapped onto paper towels. Quenching buffer (100 μL) was added to each well and the cells were incubated at ambient temperature for 20 minutes without shaking.
The cells were washed with a plate washer buffer to remove the quenching buffer. Blocking buffer (100 μL) was added and the cells were incubated at ambient temperature for at least an hour with gentle shaking.
The cells were washed with a plate washer buffer and diluted primary antibody (50 μL) was added to each well (blocking buffer was added to the negative control wells instead). The plates were incubated overnight at 4° C. with gentle shaking.
The wash buffer was removed, diluted secondary antibody (100 μL) was added, and the cells were incubated at ambient temperature for 1 hour with gentle shaking. […]

SMILES: C[C@H]1CN(c2ccc(Nc3nc(N)n(-c4nnc(-c5ccccc5Cl)c5c4C4CCC5CC4)n3)cn2)CCN1CC1CC1 [Compound 22, (3S)-1-(4-(2-chlorophenyl)-5,8-ethano-5,6,7,8-tetrahydrophthalazine-1-yl)-N^3-(6-(4-(cyclopropylmethyl)-3-methylpiperazin-1-yl)pyridin-3-yl)-1H-1,2,4-triazole-3,5-diamine]
- IC50 (Table 7, formula (V)): < 1000 nM

SMILES: Cc1cccc(-c2nnc(-n3nc(Nc4ccc(N5CCN(CC6CC6)[C@@H](C)C5)nc4)nc3N)c3c2C2CCC3CC2)c1 [Compound 23, (3S)-1-(4-(3-methylphenyl)-5,8-ethano-5,6,7,8-tetrahydrophthalazine-1-yl)-N^3-(6-(4-(cyclopropylmethyl)-3-methylpiperazin-1-yl)pyridin-3-yl)-1H-1,2,4-triazole-3,5-diamine]
- IC50 (Table 7, formula (V)): 1000 to 10000 nM

SMILES: CC(C)N[C@H]1CCc2ccc(Nc3nc(N)n(-c4cc(-c5ccccc5)c5c(n4)C4CCN5CC4)n3)cc2CC1 [Compound 37, (7S)-1-(1,4-ethano-8-phenyl-1,2,3,4-tetrahydro-1,5-naphthyridin-6-yl)-N^3-(7-(isopropylamino)-6,7,8,9-tetrahydro-5H-benzo[7]annulene-2-yl)-1H-1,2,4-triazole-3,5-diamine]
- IC50 (Table 4, formula (III)): < 1000 nM

SMILES: N#Cc1cccc(-c2nnc(-n3nc(Nc4ccc(N5CCC(N6CCCC6)CC5)c(F)c4)nc3N)c3c2C2CCC3CC2)c1 [Compound 16, 1-(4-(3-cyanophenyl)-5,8-ethano-5,6,7,8-tetrahydrophthalazine-1-yl)-N^3-(4-(4-(pyrrolidin-1-yl)piperidinyl)-3-fluorophenyl)-1H-1,2,4-triazole-3,5-diamine]
- IC50 (Table 5, formula (IVa)): < 1000 nM

SMILES: CCOc1ccc(C)cc1-c1nnc(-n2nc(Nc3ccc4c(c3)CCC(N3CCCC3)CC4)nc2N)c2c1C1CCC2CC1 (centres unmarked) [Compound 32, 1-(4-(2-ethoxy-5-methylphenyl)-5,8-ethano-5,6,7,8-tetrahydrophthalazine-1-yl)-N^3-(7-(pyrrolidin-1-yl)-6,7,8,9-tetrahydro-5H-benzo[7]annulene-2-yl)-1H-1,2,4-triazole-3,5-diamine]
- IC50 (Table 8, formula (VI)): 1000 to 10000 nM

SMILES: N#Cc1cccc(-c2nnc(-n3nc(Nc4ccc5c(c4)CCC(N4CCCC4)CC5)nc3N)c3c2C2CCC3CC2)c1 (centres unmarked) [Compound 31, 1-(4-(3-cyanophenyl)-5,8-ethano-5,6,7,8-tetrahydrophthalazine-1-yl)-N^3-(7-(pyrrolidin-1-yl)-6,7,8,9-tetrahydro-5H-benzo[7]annulene-2-yl)-1H-1,2,4-triazole-3,5-diamine]
- IC50 (Table 8, formula (VI)): < 1000 nM

SMILES: Nc1nc(Nc2ccc3c(c2)CCC(N2CCCC2)CC3)nn1-c1nnc(-c2ccncc2)c2c1C1CCC2CC1 (centres unmarked) [Compound 34, 1-(4-(pyridin-4-yl)-5,8-ethano-5,6,7,8-tetrahydrophthalazine-1-yl)-N^3-(7-(pyrrolidin-1-yl)-6,7,8,9-tetrahydro-5H-benzo[7]annulene-2-yl)-1H-1,2,4-triazole-3,5-diamine]
- IC50 (Table 8, formula (VI)): < 1000 nM

Other lines, results leading:

- IC50 (Table 8, formula (VI)): < 1000 nM
SMILES: Nc1nc(Nc2ccc3c(c2)CCC(N2CCCC2)CC3)nn1-c1nnc(-c2ccccc2Cl)c2c1C1CCC2CC1 (centres unmarked) [Compound 29, 1-(4-(2-chlorophenyl)-5,8-ethano-5,6,7,8-tetrahydrophthalazine-1-yl)-N^3-(7-(pyrrolidin-1-yl)-6,7,8,9-tetrahydro-5H-benzo[7]annulene-2-yl)-1H-1,2,4-triazole-3,5-diamine]

- IC50 (Table 3, formula (II)): < 1000 nM
SMILES: Nc1nc(Nc2ccc(N3CCC(N4CCCC4)CC3)c(F)c2)nn1-c1cc(-c2ccc(F)cc2)c2c(n1)C1CCN2CC1 [Compound 8, 1-(1,4-ethano-8-(4-fluorophenyl)-1,2,3,4-tetrahydro-1,5-naphthyridin-6-yl)-N^3-(4-(4-(pyrrolidin-1-yl)piperidinyl)-3-fluorophenyl)-1H-1,2,4-triazole-3,5-diamine]

- IC50 (Table 3, formula (II)): < 1000 nM
SMILES: Nc1nc(Nc2ccc(N3CCC(N4CCCC4)CC3)c(F)c2)nn1-c1cc(-c2ccccc2)c2c(n1)C1CCN(CC1)C2 [Compound 7, 1-(6,9-ethano-4-phenyl-6,7,8,9-tetrahydro-5H-pyrido[3,2-c]azepin-2-yl)-N^3-(4-(4-(pyrrolidin-1-yl)piperidinyl)-3-fluorophenyl)-1H-1,2,4-triazole-3,5-diamine]

- IC50 (Table 9, formula (VII)): < 1000 nM
SMILES: Nc1nc(Nc2ccc(N3CCC(N4CCCC4)CC3)c(F)c2)nn1-c1nc2c(c(-c3ccccc3)n1)CCCC2 [Compound 42, 1-(4-phenyl-5,6,7,8-tetrahydroquinazoline-2-yl)-N^3-(4-(4-(pyrrolidin-1-yl)piperidinyl)-3-fluorophenyl)-1H-1,2,4-triazole-3,5-diamine]

- IC50 (Table 2, formula (Ib)): < 1000 nM
SMILES: CN(C)CC(=O)N1CCc2ncc(Nc3nc(N)n(-c4cc(-c5ccccc5)c5c(n4)C4CCN5CC4)n3)cc2C1 [Compound 4, 1-(1,4-ethano-8-phenyl-1,2,3,4-tetrahydro-1,5-naphthyridin-6-yl)-N^3-(6-[((dimethyl)amino)methylcarbonyl]-5,6,7,8-tetrahydro-1,6-naphthyridine-3-yl)-1H-1,2,4-triazole-3,5-diamine]

- IC50 (Table 3, formula (II)): < 1000 nM
SMILES: Cc1ccccc1-c1cc(-n2nc(Nc3ccc(N4CCC(N5CCCC5)CC4)c(F)c3)nc2N)nc2c1N1CCC2CC1 [Compound 12, 1-(1,4-ethano-8-(2-methylphenyl)-1,2,3,4-tetrahydro-1,5-naphthyridin-6-yl)-N^3-(4-(4-(pyrrolidin-1-yl)piperidinyl)-3-fluorophenyl)-1H-1,2,4-triazole-3,5-diamine]

- IC50 (Table 4, formula (III)): < 1000 nM
SMILES: CCN(CC)[C@H]1CCc2ccc(Nc3nc(N)n(-c4cc(-c5ccccc5)c5c(n4)C4CCN5CC4)n3)cc2CC1 [Compound 35, (7S)-1-(1,4-ethano-8-phenyl-1,2,3,4-tetrahydro-1,5-naphthyridin-6-yl)-N^3-(7-(diethylamino)-6,7,8,9-tetrahydro-5H-benzo[7]annulene-2-yl)-1H-1,2,4-triazole-3,5-diamine]
